Test results: patent publication US10329260B2, “Human plasma kallikrein inhibitors” (BioCryst Pharmaceuticals, Inc., priority 2014, dated 2019)

molecular target: human plasma kallikrein (Homo sapiens (Human), UniProt P03952); assay: Plasma Kallikrein Activity Assay; type: biochemical; conditions: 2 nM kallikrein, 80 μM chromogenic substrate S2302, 30° C., pH 7.8; Ki by Cheng-Prusoff equation
Sequence (P03952 whole entry partner, looked up): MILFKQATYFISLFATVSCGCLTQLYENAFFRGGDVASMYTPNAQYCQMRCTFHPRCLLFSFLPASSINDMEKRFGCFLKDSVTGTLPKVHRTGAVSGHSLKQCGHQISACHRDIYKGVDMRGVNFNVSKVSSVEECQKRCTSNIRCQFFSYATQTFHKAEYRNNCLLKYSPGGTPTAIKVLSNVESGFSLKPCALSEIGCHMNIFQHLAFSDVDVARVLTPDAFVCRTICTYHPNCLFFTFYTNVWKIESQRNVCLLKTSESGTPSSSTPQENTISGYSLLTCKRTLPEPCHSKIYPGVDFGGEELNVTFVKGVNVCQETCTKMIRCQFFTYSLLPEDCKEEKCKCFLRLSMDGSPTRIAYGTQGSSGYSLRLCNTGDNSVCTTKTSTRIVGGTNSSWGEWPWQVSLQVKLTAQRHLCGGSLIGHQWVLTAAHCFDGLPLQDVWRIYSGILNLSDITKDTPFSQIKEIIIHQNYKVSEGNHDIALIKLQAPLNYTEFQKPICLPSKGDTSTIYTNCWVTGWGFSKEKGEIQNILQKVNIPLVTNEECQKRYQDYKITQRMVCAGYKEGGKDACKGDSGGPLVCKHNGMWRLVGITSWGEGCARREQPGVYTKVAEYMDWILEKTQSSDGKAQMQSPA
Sequence (P03952 whole entry, looked up): as the sequence (P03952 whole entry partner, looked up) above

Compound | Ki [nM]
CCCCCNC(c1ccccc1)c1cccc(NC(=O)c2cc(C(F)(F)F)nn2-c2cccc(CN)c2)c1 (stereo not drawn) [Compound 172b, 1-(3-(Aminomethyl)phenyl)-N-(3-((pentylamino)(phenyl)methyl)phenyl)-3-(trifluoromethyl)-1H-pyrazole-5-carboxamide] | > 100
CC(C)(CO)NC(c1ccccc1)c1cccc(NC(=O)c2cc(C(F)(F)F)nn2-c2cccc(CN)c2)c1 (stereo not drawn) [Compound 174b, 1-(3-(aminomethyl)phenyl)-N-(3-(((1-hydroxy-2-methylpropan-2-yl)amino)(phenyl)methyl)phenyl)-3-(trifluoromethyl)-1H-pyrazole-5-carboxamide] | > 100
NCc1cccc(-n2nc(C(F)(F)F)cc2C(=O)Nc2cccc(C(CCC3CC3)N3CCOCC3)c2)c1 (stereo not drawn) [Compound 93b, 1-(3-(aminomethyl)phenyl)-N-(3-(3-cyclopropyl-1-morpholinopropyl)phenyl)-3-(trifluoromethyl)-1H-pyrazole-5-carboxamide] | > 100
Nc1ncnc2ccc(-n3nc(C(F)(F)F)cc3C(=O)Nc3cc(C(NCC4CC4)c4ccccc4)ccc3F)cc12 (stereo not drawn) [Compound 226a, 1-(4-aminoquinazolin-6-yl)-N-(5-((cyclopropylmethylamino)(phenyl)methyl)-2-fluorophenyl)-3-(trifluoromethyl)-1H-pyrazole-5-carboxamide] | > 100
N=C(NO)c1cccc(-n2nc(C(F)(F)F)cc2C(=O)Nc2cc(C(NCC3CC3)c3ccccc3)ccc2F)c1 (single isomer, unassigned; (-)) [Compound 232a, (−)-N-(5-((cyclopropylmethylamino)(phenyl)methyl)-2-fluorophenyl)-1-(3-(N-hydroxycarbamimidoyl)phenyl)-3-(trifluoromethyl)-1H-pyrazole-5-carboxamide] | > 100
O=C(Nc1cc(C(O)(CCC2CC2)c2ccccn2)ccc1F)c1cc(C(F)(F)F)nn1-c1ccc2cc(Cl)ccc2c1 (stereo not drawn) [Compound 158a, 1-(6-chloronaphthalen-2-yl)-N-(5-(3-cyclopropyl-1-hydroxy-1-(pyridin-2-yl)propyl)-2-fluorophenyl)-3-(trifluoromethyl)-1H-pyrazole-5-carboxamide] | > 100
NCc1cccc(-n2nc(C(F)(F)F)cc2C(=O)Nc2cccc(C(NCCCO)c3ccccc3)c2)c1 (stereo not drawn) [Compound 191b, 1-(3-(Aminomethyl)phenyl)-N-(3-(((3-hydroxypropyl)amino)(phenyl)methyl)phenyl)-3-(trifluoromethyl)-1H-pyrazole-5-carboxamide] | > 100
NCc1cccc(-n2nc(C(F)(F)F)cc2C(=O)Nc2ccc3c(c2F)CCNC3)c1 [Compound 162c, 1-(3-(aminomethyl)phenyl)-N-(5-fluoro-1,2,3,4-tetrahydroisoquinolin-6-yl)-3-(trifluoromethyl)-1H-pyrazole-5-carboxamide] | > 100
NCc1cccc(-n2nc(C(F)(F)F)cc2C(=O)Nc2cccc(Cc3ccccc3)c2)c1 [Compound 19d, 1-(3-(aminomethyl)phenyl)-N-(3-benzylphenyl)-3-(trifluoromethyl)-1H-pyrazole-5-carboxamide] | > 100
CN(Cc1cccc(NC(=O)c2cc(C(F)(F)F)nn2-c2cccc(CN)c2)c1)c1ccccc1 [Compound 28f, 1-(3-(aminomethyl)phenyl)-N-(3-((methyl(phenyl)amino)methyl)phenyl)-3-(trifluoromethyl)-1H-pyrazole-5-carboxamide] | > 100
CSCCNC(c1ccccc1)c1cccc(NC(=O)c2cc(C(F)(F)F)nn2-c2cccc(CN)c2)c1 (stereo not drawn) [Compound 190b, 1-(3-(aminomethyl)phenyl)-N-(3-(((2-(methylthio)ethyl)amino)(phenyl)methyl)phenyl)-3-(trifluoromethyl)-1H-pyrazole-5-carboxamide] | > 100
COC(c1ccccc1)c1ccc(F)c(NC(=O)c2cc(C(F)(F)F)nn2-c2cccc(CN)c2)c1 (stereo not drawn) [Compound 25c, 1-(3-(aminomethyl)phenyl)-N-(2-fluoro-5-(methoxy(phenyl)methyl)phenyl)-3-(trifluoromethyl)-1H-pyrazole-5-carboxamide] | > 100
CCCCOC(c1ccccc1)c1cccc(NC(=O)c2cc(C(F)(F)F)nn2-c2cccc(CN)c2)c1 (stereo not drawn) [Compound 18j, 1-(3-(aminomethyl)phenyl)-N-(3-(butoxy(phenyl)methyl)phenyl)-3-(trifluoromethyl)-1H-pyrazole-5-carboxamide] | > 100
N#Cc1cccc(C(N)(CCC2CC2)c2ccc(F)c(NC(=O)c3cc(C(F)(F)F)nn3-c3cccc(CN)c3)c2)c1 (single isomer, unassigned; (+)) [Compound 214g, (+)-N-(5-(1-amino-1-(3-cyanophenyl)-3-cyclopropylpropyl)-2-fluorophenyl)-1-(3-(aminomethyl)phenyl)-3-(trifluoromethyl)-1H-pyrazole-5-carboxamide] | 0.1 to 50
N#Cc1cccc(C(N)(CCC2CC2)c2ccc(F)c(NC(=O)c3cc(C(F)(F)F)nn3-c3cccc(CN)c3)c2)c1 (single isomer, unassigned; (-)) [Compound 215d, (−)-N-(5-(1-amino-1-(3-cyanophenyl)-3-cyclopropylpropyl)-2-fluorophenyl)-1-(3-(aminomethyl)phenyl)-3-(trifluoromethyl)-1H-pyrazole-5-carboxamide] | > 100
N#CCC(c1ccccc1)c1cccc(NC(=O)c2cc(C(F)(F)F)nn2-c2cccc(CN)c2)c1 (stereo not drawn) [Compound 39e, 1-(3-(aminomethyl)phenyl)-N-(3-(2-cyano-1-phenylethyl)phenyl)-3-(trifluoromethyl)-1H-pyrazole-5-carboxamide] | > 100
Nc1n[nH]c2ccc(-n3nc(C(F)(F)F)cc3C(=O)Nc3cc(C(NCC4CC4)c4ccccc4)ccc3F)cc12 (stereo not drawn) [Compound 224b, 1-(3-amino-1H-indazol-5-yl)-N-(5-((cyclopropylmethylamino)(phenyl)methyl)-2-fluorophenyl)-3-(trifluoromethyl)-1H-pyrazole-5-carboxamide] | > 100
NCc1cccc(-n2nc(C(F)(F)F)cc2C(=O)Nc2cccc(C(NCc3ccc(N)cc3)c3ccccc3)c2)c1 (stereo not drawn) [Compound 189b, N-(3-(((4-Aminobenzyl)amino)(phenyl)methyl)phenyl)-1-(3-(aminomethyl)phenyl)-3-(trifluoromethyl)-1H-pyrazole-5-carboxamide] | > 100
NCc1cccc(-n2nc(C(F)(F)F)cc2C(=O)Nc2cc(C(O)c3ccccc3)ccc2F)c1 (stereo not drawn) [Compound 34d, 1-(3-(aminomethyl)phenyl)-N-(2-fluoro-5-(hydroxy(phenyl)methyl)phenyl)-3-(trifluoromethyl)-1H-pyrazole-5-carboxamide] | > 100
COC(c1ccccc1)c1cccc(NC(=O)c2cc(C(F)(F)F)nn2-c2cccc(CN)c2)c1 (stereo not drawn) [Compound 18f, 1-(3-(aminomethyl)phenyl)-N-(3-(methoxy(phenyl)methyl)phenyl)-3-(trifluoromethyl)-1H-pyrazole-5-carboxamide] | > 100
CN(C)C(c1ccccc1)c1cccc(NC(=O)c2cc(C(F)(F)F)nn2-c2cccc(CN)c2)c1 (stereo not drawn) [Compound 184b, 1-(3-(Aminomethyl)phenyl)-N-(3-((dimethylamino)(phenyl)methyl)phenyl)-3-(trifluoromethyl)-1H-pyrazole-5-carboxamide] | > 100
CCC(C)CNC(c1ccccc1)c1cccc(NC(=O)c2cc(C(F)(F)F)nn2-c2cccc(CN)c2)c1 (stereo not drawn) [Compound 177b, 1-(3-(Aminomethyl)phenyl)-N-(3-(((2-methylbutyl)amino)(phenyl)methyl)phenyl)-3-(trifluoromethyl)-1H-pyrazole-5-carboxamide] | > 100
NCc1cccc(-n2nc(C(F)(F)F)cc2C(=O)Nc2cc3c(cc2F)CCNC3)c1 [Compound 163g, 1-(3-(aminomethyl)phenyl)-N-(6-fluoro-1,2,3,4-tetrahydroisoquinolin-7-yl)-3-(trifluoromethyl)-1H-pyrazole-5-carboxamide] | > 100
NCc1cccc(-n2nc(C(F)(F)F)cc2C(=O)Nc2cccc(Cc3cccc(O)c3)c2)c1 [Compound 137b, 1-(3-(aminomethyl)phenyl)-N-(3-(3-hydroxybenzyl)phenyl)-3-(trifluoromethyl)-1H-pyrazole-5-carboxamide] | > 100
NCc1cccc(-n2nc(C(F)(F)F)cc2C(=O)Nc2cccc(C(NCCCn3ccnc3)c3ccccc3)c2)c1 (stereo not drawn) [Compound 183b, N-(3-(((3-(1H-Imidazol-1-yl)propyl)amino)(phenyl)methyl)phenyl)-1-(3-(aminomethyl)phenyl)-3-(trifluoromethyl)-1H-pyrazole-5-carboxamide] | > 100
NCc1cccc(-n2nc(C(F)(F)F)cc2C(=O)Nc2cccc(Nc3ccccc3)c2)c1 [Compound 17d, 1-(3-(aminomethyl)phenyl)-N-(3-(phenylamino)phenyl)-3-(trifluoromethyl)-1H-pyrazole-5-carboxamide] | > 100
N#Cc1cc(C(=O)Nc2cc(C(N)(CCC3CC3)c3ccc(C(N)=O)cc3)ccc2F)n(-c2cccc(CN)c2)n1 (single isomer, unassigned; (+)) [Compound 239d, (+)-N-(5-(1-amino-1-(4-carbamoylphenyl)-3-cyclopropylpropyl)-2-fluorophenyl)-1-(3-(aminomethyl)phenyl)-3-cyano-1H-pyrazole-5-carboxamide] | > 100
NCc1cccc(-n2nc(C(F)(F)F)cc2C(=O)Nc2ccc(C(OCC3CC3)c3ccccc3)cc2F)c1 (stereo not drawn) [Compound 15g, 1-(3-(aminomethyl)phenyl)-N-(4-((cyclopropylmethoxy)(phenyl)methyl)-2-fluorophenyl)-3-(trifluoromethyl)-1H-pyrazole-5-carboxamide] | > 100
NCc1cccc(-n2nc(C(F)(F)F)cc2C(=O)Nc2cccc(C(=O)c3ccccc3)c2)c1 [Compound 22b, 1-(3-(aminomethyl)phenyl)-N-(3-benzoylphenyl)-3-(trifluoromethyl)-1H-pyrazole-5-carboxamide] | > 100
NCc1cccc(-n2nc(C(F)(F)F)cc2C(=O)Nc2cccc(C(=O)Nc3ccccc3)c2)c1 [Compound 21e, 1-(3-(aminomethyl)phenyl)-N-(3-(phenylcarbamoyl)phenyl)-3-(trifluoromethyl)-1H-pyrazole-5-carboxamide] | > 100
